Source: ChEMBL document CHEMBL5303763, “Data for DCP probe BI-3802” (2023)
Calls of active or inactive are those of the source. The calls are words filed in the database; no cut-off is given here.

Assays:
[1] = biological target: Glutamate NMDA receptor (Rattus norvegicus) (UniProt P35439+Q00959+Q00960+Q00961+Q62645+Q8VHN2+Q9R1M7); test: NMDA/R Eurofins SafetyScreen44 (BI); assay type: protein-complex assay; conditions: Compound concentration 10.0 uM
[2] = biological target: 3',5'-cyclic-AMP phosphodiesterase 4D (Homo sapiens) (UniProt Q08499); test: PDE4D2 Eurofins SafetyScreen44 (BI); conditions: Compound concentration 10.0 uM
[3] = biological target: D(2) dopamine receptor (Homo sapiens) (UniProt P14416); test: D2SH_AGON Eurofins SafetyScreen44 (BI); conditions: filed as agonist, Compound concentration 10.0 uM
[4] = biological target: Adenosine receptor A2a (Homo sapiens) (UniProt P29274); test: A2A/H Eurofins SafetyScreen44 (BI); conditions: filed as antagonist, Compound concentration 10.0 uM
[5] = biological target: Cannabinoid receptor 2 (Homo sapiens) (UniProt P34972); test: CB2/PERIPH/H Eurofins SafetyScreen44 (BI); conditions: Compound concentration 10.0 uM
[6] = biological target: cGMP-inhibited 3',5'-cyclic phosphodiesterase 3A (Homo sapiens) (UniProt Q14432); test: PDE3A Eurofins SafetyScreen44 (BI); conditions: Compound concentration 10.0 uM
[7] = biological target: Prostaglandin G/H synthase 1 (Homo sapiens) (UniProt P23219); test: COX-1 Eurofins SafetyScreen44 (BI); conditions: Compound concentration 10.0 uM
[8] = biological target: Androgen receptor (Homo sapiens) (UniProt P10275); test: ANDROGEN/H Eurofins SafetyScreen44 (BI); conditions: Compound concentration 10.0 uM
[9] = biological target: 5-hydroxytryptamine receptor 2B (Homo sapiens) (UniProt P41595); test: 5HT2B/H AG Eurofins SafetyScreen44 (BI); conditions: filed as agonist, Compound concentration 10.0 uM
[10] = biological target: GABA-A receptor; anion channel (Rattus norvegicus) (UniProt O09028+P15431+P18506+P18508+P19969+P20236+P23574+P23576+P28471+P28473+P30191+P62813+P63079+P63138+Q91ZM7+Q9ES14); test: BZD/CENTR/R Eurofins SafetyScreen44 (BI); assay type: protein-complex assay; conditions: Compound concentration 10.0 uM
[11] = biological target: Endothelin-1 receptor (Homo sapiens) (UniProt P25101); test: ETA/H Eurofins SafetyScreen44 (BI); conditions: Compound concentration 10.0 uM
[12] = biological target: B-cell lymphoma 6 protein (Homo sapiens, UniProt P41182); test: BCL6:BCOR ULight TR-FRET
[13] = biological target: Beta-1 adrenergic receptor (Homo sapiens) (UniProt P08588); test: BETA1/HUM Eurofins SafetyScreen44 (BI); conditions: Compound concentration 10.0 uM
[14] = biological target: Muscarinic acetylcholine receptor M1 (Homo sapiens) (UniProt P11229); test: M1/H Eurofins SafetyScreen44 (BI); conditions: Compound concentration 10.0 uM
hERG (KCNH2) = hERG (KCNH2) (Homo sapiens, UniProt Q12809); test: HERG_DOFETILIDE Eurofins SafetyScreen44 (BI); conditions: probe [3H] Dofetilide, compound concentration 10 uM, read-out: % Ctrl
[15] = biological target: MAO-A (Amine oxidase [flavin-containing] A) (Rattus norvegicus, UniProt P21396); test: MAO-A_ANTAG Eurofins SafetyScreen44 (BI); design: scale not given: the % may be the effect or the level left; conditions: compound concentration 10 uM, read-out: % Ctrl
[16] = biological target: D(1A) dopamine receptor (Homo sapiens) (UniProt P21728); test: D1/H Eurofins SafetyScreen44 (BI); conditions: filed as antagonist, Compound concentration 10.0 uM
[17] = biological target: Sodium-dependent noradrenaline transporter (Homo sapiens) (UniProt P23975); test: NEUP/H Eurofins SafetyScreen44 (BI); conditions: Compound concentration 10.0 uM
[18] = biological target: Cholecystokinin receptor type A (Homo sapiens) (UniProt P32238); test: CCKA/H Eurofins SafetyScreen44 (BI); conditions: Compound concentration 10.0 uM
[19] = biological target: Muscarinic acetylcholine receptor M3 (Homo sapiens) (UniProt P20309); test: M3/H Eurofins SafetyScreen44 (BI); conditions: Compound concentration 10.0 uM
[20] = biological target: Delta-type opioid receptor (Homo sapiens) (UniProt P41143); test: DELTA2/H Eurofins SafetyScreen44 (BI); conditions: Compound concentration 10.0 uM
[21] = biological target: Histamine H1 receptor (Homo sapiens) (UniProt P35367); test: H1/PYRIL/HS Eurofins SafetyScreen44 (BI); conditions: Compound concentration 10.0 uM
[22] = biological target: Sodium-dependent dopamine transporter (Homo sapiens) (UniProt Q01959); test: DATRANS/HUM Eurofins SafetyScreen44 (BI); conditions: Compound concentration 10.0 uM
[23] = biological target: Mu-type opioid receptor (Homo sapiens) (UniProt P35372); test: MU/H Eurofins SafetyScreen44 (BI); conditions: Compound concentration 10.0 uM
[24] = biological target: T1, Alpha-2A adrenergic receptor (Homo sapiens) (UniProt P08913); test: ALPHA2A/HU Eurofins SafetyScreen44 (BI); conditions: Compound concentration 10.0 uM
T1 sequence (whole entry): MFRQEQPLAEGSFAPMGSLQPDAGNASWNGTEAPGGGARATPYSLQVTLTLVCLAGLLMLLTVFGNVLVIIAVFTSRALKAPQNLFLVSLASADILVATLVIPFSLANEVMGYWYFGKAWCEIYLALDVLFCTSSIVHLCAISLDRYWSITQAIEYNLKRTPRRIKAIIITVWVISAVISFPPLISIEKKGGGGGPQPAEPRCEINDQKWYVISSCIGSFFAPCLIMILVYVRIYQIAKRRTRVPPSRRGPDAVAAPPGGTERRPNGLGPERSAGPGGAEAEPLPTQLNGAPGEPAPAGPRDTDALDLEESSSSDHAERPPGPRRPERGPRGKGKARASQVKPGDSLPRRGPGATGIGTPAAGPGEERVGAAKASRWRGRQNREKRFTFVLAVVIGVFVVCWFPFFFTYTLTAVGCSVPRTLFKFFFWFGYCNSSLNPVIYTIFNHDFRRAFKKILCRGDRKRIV

[25] = biological target: T2, Muscarinic acetylcholine receptor M2 (Homo sapiens) (UniProt P08172); test: M2/H Eurofins SafetyScreen44 (BI); conditions: filed as antagonist, Compound concentration 10.0 uM
T2 sequence (whole entry): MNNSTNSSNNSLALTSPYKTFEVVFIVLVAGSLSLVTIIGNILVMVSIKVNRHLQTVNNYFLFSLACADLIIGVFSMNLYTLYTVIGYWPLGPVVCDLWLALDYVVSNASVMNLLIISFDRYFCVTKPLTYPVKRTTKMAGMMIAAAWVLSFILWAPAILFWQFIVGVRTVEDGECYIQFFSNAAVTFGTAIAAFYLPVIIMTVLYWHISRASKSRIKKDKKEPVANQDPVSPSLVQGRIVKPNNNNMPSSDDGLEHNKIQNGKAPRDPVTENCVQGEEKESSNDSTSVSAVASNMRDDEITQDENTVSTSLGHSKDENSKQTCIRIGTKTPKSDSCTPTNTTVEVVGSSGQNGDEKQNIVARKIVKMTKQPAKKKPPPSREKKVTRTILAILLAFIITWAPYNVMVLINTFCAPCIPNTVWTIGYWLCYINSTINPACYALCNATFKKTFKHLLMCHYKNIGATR

[26] = biological target: voltage-gated Na+ channel (site 2) (Rattus norvegicus, UniProt F1LQQ7+O08562+O88420+O88457+P04774+P04775+P08104+P15389+P15390+Q62968); test: NA+/SITE2/R Eurofins SafetyScreen44 (BI); assay type: protein assay; conditions: rat brain, probe [3H]batrachotoxinin, compound concentration 10 uM, read-out: % Ctrl
[27] = biological target: 5-hydroxytryptamine receptor 2A (Homo sapiens) (UniProt P28223); test: 5HT2AH_AGON Eurofins SafetyScreen44 (BI); conditions: filed as agonist, Compound concentration 10.0 uM
[28] = biological target: Neuronal acetylcholine receptor; alpha4/beta2 (Homo sapiens) (UniProt P17787+P43681); test: N_NEURO_A4B2 Eurofins SafetyScreen44 (BI); assay type: protein-complex assay; conditions: filed as agonist, Compound concentration 10.0 uM

MAO-A (Amine oxidase [flavin-containing] A), sequence (P21396 whole entry): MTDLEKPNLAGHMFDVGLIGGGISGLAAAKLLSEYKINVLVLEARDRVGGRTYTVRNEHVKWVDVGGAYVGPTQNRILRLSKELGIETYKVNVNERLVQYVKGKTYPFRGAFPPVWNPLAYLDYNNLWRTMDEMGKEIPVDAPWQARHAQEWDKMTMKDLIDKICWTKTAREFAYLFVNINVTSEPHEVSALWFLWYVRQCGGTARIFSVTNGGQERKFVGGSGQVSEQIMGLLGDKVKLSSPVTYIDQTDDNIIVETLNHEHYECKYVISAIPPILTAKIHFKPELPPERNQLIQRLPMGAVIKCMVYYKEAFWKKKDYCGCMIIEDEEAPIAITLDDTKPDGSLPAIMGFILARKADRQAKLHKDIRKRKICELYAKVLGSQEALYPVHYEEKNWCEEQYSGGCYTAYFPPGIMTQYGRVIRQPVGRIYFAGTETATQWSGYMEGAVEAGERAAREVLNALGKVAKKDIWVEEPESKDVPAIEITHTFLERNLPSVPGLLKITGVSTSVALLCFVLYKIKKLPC
Cholecystokinin receptor type A (Homo sapiens), sequence (P32238 whole entry): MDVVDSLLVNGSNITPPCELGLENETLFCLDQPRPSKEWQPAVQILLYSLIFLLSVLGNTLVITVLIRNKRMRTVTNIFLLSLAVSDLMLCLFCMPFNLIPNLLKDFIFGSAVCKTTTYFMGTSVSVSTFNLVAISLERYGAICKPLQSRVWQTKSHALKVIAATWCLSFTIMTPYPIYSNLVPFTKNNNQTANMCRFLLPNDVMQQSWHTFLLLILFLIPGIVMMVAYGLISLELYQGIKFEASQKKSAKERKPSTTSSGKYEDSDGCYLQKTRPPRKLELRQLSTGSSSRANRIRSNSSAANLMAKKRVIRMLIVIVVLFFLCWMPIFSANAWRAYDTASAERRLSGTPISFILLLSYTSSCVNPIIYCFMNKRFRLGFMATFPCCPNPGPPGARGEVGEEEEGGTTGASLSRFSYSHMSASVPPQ
Muscarinic acetylcholine receptor M3 (Homo sapiens), sequence (P20309 whole entry, looked up): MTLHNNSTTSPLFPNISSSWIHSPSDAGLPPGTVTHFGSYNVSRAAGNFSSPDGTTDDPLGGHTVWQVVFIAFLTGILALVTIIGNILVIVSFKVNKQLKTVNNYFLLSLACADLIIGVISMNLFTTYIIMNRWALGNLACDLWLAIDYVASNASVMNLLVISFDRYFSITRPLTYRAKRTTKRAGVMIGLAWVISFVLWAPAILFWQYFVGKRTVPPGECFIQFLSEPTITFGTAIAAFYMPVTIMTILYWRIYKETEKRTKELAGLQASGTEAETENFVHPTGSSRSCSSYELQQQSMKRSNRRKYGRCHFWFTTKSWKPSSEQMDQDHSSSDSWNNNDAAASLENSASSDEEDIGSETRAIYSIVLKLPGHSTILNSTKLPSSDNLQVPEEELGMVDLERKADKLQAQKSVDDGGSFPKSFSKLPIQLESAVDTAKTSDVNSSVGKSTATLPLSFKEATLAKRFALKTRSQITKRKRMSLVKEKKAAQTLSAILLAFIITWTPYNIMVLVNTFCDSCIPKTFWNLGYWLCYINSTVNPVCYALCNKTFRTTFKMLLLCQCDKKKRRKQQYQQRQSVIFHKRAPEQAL
3',5'-cyclic-AMP phosphodiesterase 4D (Homo sapiens), sequence (Q08499 whole entry): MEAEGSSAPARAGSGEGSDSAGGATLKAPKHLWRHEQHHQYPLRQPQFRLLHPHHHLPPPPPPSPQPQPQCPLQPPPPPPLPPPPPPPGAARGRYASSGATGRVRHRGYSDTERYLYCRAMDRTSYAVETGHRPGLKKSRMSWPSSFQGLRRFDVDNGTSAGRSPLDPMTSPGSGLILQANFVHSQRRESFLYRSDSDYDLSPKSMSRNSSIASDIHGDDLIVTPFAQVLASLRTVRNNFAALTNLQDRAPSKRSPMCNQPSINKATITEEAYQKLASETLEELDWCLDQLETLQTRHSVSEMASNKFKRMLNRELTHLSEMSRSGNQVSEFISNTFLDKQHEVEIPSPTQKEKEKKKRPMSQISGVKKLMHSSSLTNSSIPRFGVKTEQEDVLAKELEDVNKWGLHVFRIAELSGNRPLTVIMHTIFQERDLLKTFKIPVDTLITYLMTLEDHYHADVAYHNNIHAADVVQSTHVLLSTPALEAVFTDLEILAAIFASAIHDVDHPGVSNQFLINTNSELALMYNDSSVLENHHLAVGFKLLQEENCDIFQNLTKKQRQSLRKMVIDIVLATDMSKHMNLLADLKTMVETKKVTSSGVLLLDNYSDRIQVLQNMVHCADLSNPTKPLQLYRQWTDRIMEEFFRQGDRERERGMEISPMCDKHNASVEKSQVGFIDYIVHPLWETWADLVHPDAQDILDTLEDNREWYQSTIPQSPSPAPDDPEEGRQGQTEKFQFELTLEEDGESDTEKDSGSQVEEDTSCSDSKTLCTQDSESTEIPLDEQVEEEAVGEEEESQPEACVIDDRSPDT
Endothelin-1 receptor (Homo sapiens), sequence (P25101 whole entry): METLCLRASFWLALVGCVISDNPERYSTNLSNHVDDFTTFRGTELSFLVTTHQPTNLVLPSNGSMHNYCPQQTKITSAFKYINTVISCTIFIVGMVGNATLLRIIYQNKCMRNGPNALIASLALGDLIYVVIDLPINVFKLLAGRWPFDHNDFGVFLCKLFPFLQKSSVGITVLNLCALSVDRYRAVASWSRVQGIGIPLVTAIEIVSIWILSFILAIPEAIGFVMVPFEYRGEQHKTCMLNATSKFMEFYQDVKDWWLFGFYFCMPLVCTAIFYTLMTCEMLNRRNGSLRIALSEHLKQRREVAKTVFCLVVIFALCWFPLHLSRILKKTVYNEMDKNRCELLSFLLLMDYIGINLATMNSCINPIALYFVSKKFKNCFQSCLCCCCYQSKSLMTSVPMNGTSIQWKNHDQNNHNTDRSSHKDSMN
Muscarinic acetylcholine receptor M1 (Homo sapiens), sequence (P11229 whole entry): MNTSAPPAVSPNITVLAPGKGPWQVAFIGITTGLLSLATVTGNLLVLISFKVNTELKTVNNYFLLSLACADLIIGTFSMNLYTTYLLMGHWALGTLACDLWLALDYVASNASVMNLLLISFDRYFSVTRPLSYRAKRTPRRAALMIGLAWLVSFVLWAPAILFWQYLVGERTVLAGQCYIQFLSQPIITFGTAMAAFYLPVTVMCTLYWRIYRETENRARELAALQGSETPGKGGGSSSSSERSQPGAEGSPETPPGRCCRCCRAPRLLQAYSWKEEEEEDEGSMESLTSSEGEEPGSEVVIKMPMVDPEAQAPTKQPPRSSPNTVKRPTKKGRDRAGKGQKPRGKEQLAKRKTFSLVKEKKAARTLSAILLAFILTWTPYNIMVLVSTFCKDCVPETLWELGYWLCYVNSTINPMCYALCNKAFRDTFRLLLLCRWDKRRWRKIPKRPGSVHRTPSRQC
D(2) dopamine receptor (Homo sapiens), sequence (P14416 whole entry): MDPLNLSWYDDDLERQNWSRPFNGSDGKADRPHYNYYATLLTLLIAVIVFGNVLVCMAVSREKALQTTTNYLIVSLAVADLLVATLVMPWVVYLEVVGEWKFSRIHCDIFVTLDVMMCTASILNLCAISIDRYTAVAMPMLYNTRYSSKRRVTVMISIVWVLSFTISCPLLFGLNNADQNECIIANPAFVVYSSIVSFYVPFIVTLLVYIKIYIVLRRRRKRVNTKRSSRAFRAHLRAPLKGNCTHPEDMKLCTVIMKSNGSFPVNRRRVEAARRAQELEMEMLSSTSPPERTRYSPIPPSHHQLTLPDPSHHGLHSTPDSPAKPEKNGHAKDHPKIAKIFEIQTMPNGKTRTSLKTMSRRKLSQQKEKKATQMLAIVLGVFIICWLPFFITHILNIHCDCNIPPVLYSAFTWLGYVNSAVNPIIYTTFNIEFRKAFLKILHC
Sodium-dependent noradrenaline transporter (Homo sapiens), sequence (P23975 whole entry): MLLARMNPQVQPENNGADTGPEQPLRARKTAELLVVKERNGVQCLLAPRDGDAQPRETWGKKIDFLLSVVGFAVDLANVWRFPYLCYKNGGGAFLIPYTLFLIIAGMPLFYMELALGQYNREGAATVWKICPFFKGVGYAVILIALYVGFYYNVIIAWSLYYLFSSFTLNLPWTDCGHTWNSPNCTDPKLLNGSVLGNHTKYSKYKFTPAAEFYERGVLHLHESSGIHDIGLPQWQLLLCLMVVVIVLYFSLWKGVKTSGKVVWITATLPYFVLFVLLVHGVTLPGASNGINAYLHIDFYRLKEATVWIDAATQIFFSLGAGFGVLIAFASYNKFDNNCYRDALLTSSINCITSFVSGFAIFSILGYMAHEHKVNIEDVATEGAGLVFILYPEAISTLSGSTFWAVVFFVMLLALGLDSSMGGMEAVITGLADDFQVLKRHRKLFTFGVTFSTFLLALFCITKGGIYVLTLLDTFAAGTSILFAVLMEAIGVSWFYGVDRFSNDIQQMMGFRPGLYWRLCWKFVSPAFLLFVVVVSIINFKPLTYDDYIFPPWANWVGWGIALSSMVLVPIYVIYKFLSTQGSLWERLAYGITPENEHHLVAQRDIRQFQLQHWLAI
5-hydroxytryptamine receptor 2A (Homo sapiens), sequence (P28223 whole entry): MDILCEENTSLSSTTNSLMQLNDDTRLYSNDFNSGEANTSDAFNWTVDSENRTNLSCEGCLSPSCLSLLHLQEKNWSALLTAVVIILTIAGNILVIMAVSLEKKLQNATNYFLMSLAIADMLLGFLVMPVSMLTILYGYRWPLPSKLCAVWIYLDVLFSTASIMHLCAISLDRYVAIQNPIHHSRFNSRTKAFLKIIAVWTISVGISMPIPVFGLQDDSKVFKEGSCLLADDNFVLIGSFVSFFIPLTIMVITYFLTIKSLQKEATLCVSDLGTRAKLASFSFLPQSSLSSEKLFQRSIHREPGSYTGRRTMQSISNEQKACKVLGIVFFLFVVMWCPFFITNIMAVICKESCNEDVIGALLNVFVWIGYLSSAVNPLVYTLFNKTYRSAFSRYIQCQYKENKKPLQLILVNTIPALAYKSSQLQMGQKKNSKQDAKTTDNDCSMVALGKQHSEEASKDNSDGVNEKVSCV

Row | SMILES | residual activity [1] | residual activity [2] | residual activity [3] | residual activity [4] | residual activity [5] | residual activity [6] | residual activity [7] | residual activity [8] | residual activity [9] | residual activity [10] | residual activity [11] | IC50 [12] | residual activity [13] | residual activity [14] | activity at 10 µM (hERG (KCNH2)) | activity at 10 µM [15] | residual activity [16] | residual activity [17] | residual activity [18] | residual activity [19] | also measured
1 | CNC(=O)COc1cc2cc(Nc3nc(N4C[C@H](C)C[C@H](C)C4)ncc3Cl)ccc2n(C)c1=O | 78% | 100% | 115% | 92% | 96% | 95% | 90% | 103% | 12% | 97% | 100% | ≤ 0.003 µM (active) | 99% | 93% | 76% (not active) | 89% (not active) | 106% | 99% | 100% | 110% | residual activity [20]: 100%; residual activity [21]: 105%; residual activity [22]: 88%; residual activity [23]: 81%; residual activity [24]: 111%; residual activity [25]: 102%; activity at 10 µM [26]: 114% (not active); residual activity [27]: 112%; residual activity [28]: 107%
2 | C[C@@H]1C[C@H](C)CN(c2ncc(Cl)c(Nc3ccc4c(c3)cc(OC(C)(C)C(=O)O)c(=O)n4C)n2)C1 | 88% | 87% | 86% | 107% | 103% | 99% | 82% | 104% | 159% | 147% | 111% | 10.2 µM (not active) | 99% | 128% | 95% (not active) | 96% (not active) | 92% | 102% | 137% | 111% | residual activity [20]: 97%; residual activity [21]: 86%; residual activity [22]: 100%; residual activity [23]: 44%; residual activity [24]: 104%; residual activity [25]: 111%; activity at 10 µM [26]: 88% (not active); residual activity [27]: 125%; residual activity [28]: 106%
